Data: patent publication US9676782B2, “Substituted pyrazolo[1,5-a]pyrazines as negative allosteric modulators of metabotropic glutamate receptor 3” (Vanderbilt University, priority 2014, dated 2017)
Where two headings read alike, the source gives them in different places.

Legend:
rat mGlu5 = rat mGlu5 (Rattus norvegicus (Rat), UniProt P31424); assay: mGlu5 Ca2+ flux assay; assay type: cell-based; conditions: for Fold selectivity (mGlu3 vs. mGlu5): ratio of rat mGlu5 EC50 or IC50 to rat mGlu3 IC50; for EC50: read-out: rat mGlu5 EC50 or IC50; for Emax at 30 µM: PAM, amplitude of response at 30 μM test compound as % of maximal response to glutamate, read-out: rat mGlu5 Glu max (%)
Chain of rat mGlu5 (P31424 21-1203): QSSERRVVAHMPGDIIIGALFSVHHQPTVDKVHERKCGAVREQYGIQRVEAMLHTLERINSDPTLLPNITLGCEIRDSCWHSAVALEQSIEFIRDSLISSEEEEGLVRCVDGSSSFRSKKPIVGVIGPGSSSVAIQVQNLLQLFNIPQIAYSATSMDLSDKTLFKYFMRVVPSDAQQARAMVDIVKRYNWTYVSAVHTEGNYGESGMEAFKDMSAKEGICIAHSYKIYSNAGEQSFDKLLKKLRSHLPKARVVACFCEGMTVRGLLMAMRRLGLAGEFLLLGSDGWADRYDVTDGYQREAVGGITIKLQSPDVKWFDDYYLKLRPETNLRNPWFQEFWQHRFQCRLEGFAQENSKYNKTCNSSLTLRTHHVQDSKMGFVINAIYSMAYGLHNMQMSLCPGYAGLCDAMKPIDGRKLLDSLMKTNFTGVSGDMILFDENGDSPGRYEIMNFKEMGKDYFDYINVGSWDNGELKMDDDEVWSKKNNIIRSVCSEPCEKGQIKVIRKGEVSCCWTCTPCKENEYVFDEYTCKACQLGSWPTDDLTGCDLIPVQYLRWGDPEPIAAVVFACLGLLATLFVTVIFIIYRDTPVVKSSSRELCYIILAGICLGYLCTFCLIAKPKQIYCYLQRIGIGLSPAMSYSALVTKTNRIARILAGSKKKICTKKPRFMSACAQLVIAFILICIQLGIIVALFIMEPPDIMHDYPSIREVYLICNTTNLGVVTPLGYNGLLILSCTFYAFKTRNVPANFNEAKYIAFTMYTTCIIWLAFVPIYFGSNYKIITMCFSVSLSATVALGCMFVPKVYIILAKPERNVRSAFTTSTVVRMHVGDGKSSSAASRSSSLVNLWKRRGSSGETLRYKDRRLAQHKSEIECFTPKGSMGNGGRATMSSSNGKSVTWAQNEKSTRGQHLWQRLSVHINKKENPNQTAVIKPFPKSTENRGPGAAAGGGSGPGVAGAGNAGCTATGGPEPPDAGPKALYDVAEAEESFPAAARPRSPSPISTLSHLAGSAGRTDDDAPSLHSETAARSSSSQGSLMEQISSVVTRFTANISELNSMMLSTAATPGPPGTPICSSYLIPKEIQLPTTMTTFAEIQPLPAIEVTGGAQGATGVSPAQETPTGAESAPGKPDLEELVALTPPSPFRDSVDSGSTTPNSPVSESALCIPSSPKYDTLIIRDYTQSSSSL
Method in brief: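 Ca2+ flux read kinetically (FDSS7000) after overnight culture at 37° C/5% CO2 and a 5 min room-temperature buffer step following dye removal. Signals expressed per well as F/F0 and normalized to peak glutamate response; EC50 fitted by free 4-parameter logistic, three replicates per concentration equally weighted.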

rat mGlu3 = rat mGlu3 (Rattus norvegicus (Rat), UniProt P31422); assay: mGlu3 Ca2+ flux assay; assay type: cell-based; conditions: for IC50: read-out: rat mGlu3 IC50; for remaining activity at 30 µM: amplitude of response at 30 μM test compound as % of maximal response to glutamate, read-out: rat mGlu3 Glu max (%)
Chain of rat mGlu3 (P31422 23-879): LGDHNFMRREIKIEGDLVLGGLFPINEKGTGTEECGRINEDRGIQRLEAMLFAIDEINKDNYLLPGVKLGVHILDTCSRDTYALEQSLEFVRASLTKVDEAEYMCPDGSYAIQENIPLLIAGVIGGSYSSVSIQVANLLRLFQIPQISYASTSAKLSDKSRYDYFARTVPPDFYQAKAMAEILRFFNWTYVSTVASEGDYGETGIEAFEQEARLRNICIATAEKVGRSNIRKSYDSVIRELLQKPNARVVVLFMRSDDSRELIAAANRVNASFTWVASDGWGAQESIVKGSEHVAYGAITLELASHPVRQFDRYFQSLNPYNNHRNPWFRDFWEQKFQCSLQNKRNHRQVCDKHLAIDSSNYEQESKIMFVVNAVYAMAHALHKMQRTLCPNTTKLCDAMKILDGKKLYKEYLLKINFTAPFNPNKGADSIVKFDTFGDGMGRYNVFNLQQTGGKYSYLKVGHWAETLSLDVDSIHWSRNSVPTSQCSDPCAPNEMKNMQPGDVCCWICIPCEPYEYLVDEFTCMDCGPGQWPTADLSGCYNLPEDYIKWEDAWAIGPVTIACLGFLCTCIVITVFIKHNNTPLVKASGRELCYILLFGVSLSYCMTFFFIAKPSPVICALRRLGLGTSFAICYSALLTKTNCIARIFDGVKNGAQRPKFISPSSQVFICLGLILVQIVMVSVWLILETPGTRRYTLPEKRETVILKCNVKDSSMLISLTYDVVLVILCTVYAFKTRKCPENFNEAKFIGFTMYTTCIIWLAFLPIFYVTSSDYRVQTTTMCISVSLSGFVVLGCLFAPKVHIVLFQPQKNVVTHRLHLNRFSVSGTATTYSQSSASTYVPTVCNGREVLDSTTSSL
Method in brief: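 This calcium mobilization assay used rat mGlu3 cells cultured overnight (37° C., 5% CO2) and read on the FDSS7000 after a 10 minute room-temperature incubation in 20 μL assay buffer. Each of 360 readings per well was divided by its initial value (F/F0). Potency came from fitting normalized responses against log concentration with an unconstrained 4 parameter logistic equation, weighting triplicate points equally.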

[1] = NAM potency, decrease of glutamate EC80 response, >30,000 = no measurable activity, >10,000 = no plateau

SMILES | Fold selectivity (mGlu3 vs. mGlu5) (rat mGlu5) | EC50 (rat mGlu5) | IC50 (rat mGlu3; [1]) | remaining activity at 30 µM (rat mGlu3) | Emax at 30 µM (rat mGlu5) | IC50 (rat mGlu3)
COc1ccc(N(C)Cc2cc3n(n2)CCN(c2cccc(C)c2)C3=O)cc1 [Compound 103, 2-(((4-methoxyphenyl)(methyl)amino)methyl)-5-(m-tolyl)-6,7-dihydropyrazolo[1,5-a]pyrazin-4(5H)-one] | >37 | > 30 µM | 0.805 µM | 1.16% |  | 
O=C1c2cc(CNc3ccc(OC(F)F)cc3F)nn2CCN1c1ccccc1F [Compound 153, 2-(((4-(difluoromethoxy)-2-fluorophenyl)amino)methyl)-5-(2-fluorophenyl)-6,7-dihydropyrazolo[1,5-a]pyrazin-4(5H)-one] | >38 | > 30 µM | 0.772 µM | 2.29% |  | 
C[C@@H]1CN(c2ccc(F)cc2)C(=O)c2cc(CNc3c(F)cccc3F)nn21 [Compound 72, (R)-2-(((2,6-difluorophenyl)amino)methyl)-5-(4-fluorophenyl)-7-methyl-6,7-dihydropyrazolo[1,5-a]pyrazin-4(5H)-one] |  |  |  | 4.1% | 59.9% | 
CN(Cc1cc2n(n1)CCN(c1ccc(F)cc1)C2=O)c1ccc(F)cc1 [Compound 89, 5-(4-fluorophenyl)-2-(((4-fluorophenyl)(methyl)amino)methyl)-6,7-dihydropyrazolo[1,5-a]pyrazin-4(5H)-one] | >64 | > 30 µM | 0.467 µM | 1.29% |  | 
C[C@H]1CN(c2ccc(F)cc2)C(=O)c2cc(CNc3c(F)cc(F)cc3F)nn21 [Compound 80, (S)-5-(4-fluorophenyl)-7-methyl-2-(((2,4,6-trifluorophenyl)amino)methyl)-6,7-dihydropyrazolo[1,5-a]pyrazin-4(5H)-one] | 1.79 | 7.75 µM | 4.32 µM | -0.58% | 95.8% | 
C[C@@H]1CN(c2ccc(F)cc2)C(=O)c2cc(CNc3c(F)cc(F)cc3F)nn21 [Compound 79, (R)-5-(4-fluorophenyl)-7-methyl-2-(((2,4,6-trifluorophenyl)amino)methyl)-6,7-dihydropyrazolo[1,5-a]pyrazin-4(5H)-one] | >7.8 | > 10 µM | 1.28 µM | 1.49% | 40% | 
COc1ccc(NCc2cc3n(n2)CCN(c2ccc(F)c(F)c2)C3=O)cc1 [Compound 1, 5-(3,4-Difluorophenyl)-2-(((4-methoxyphenyl)amino)methyl)-6,7-dihydropyrazolo[1,5-a]pyrazin-4(5H)-one] | >20 | > 30 µM |  | 4.04% |  | 
Cc1cnc(N2CCn3nc(CNc4ccc(OC(F)F)cc4F)cc3C2=O)s1 [Compound 137, 2-(((4-(difluoromethoxy)-2-fluorophenyl)amino)methyl)-5-(5-methylthiazol-2-yl)-6,7-dihydropyrazolo[1,5-a]pyrazin-4(5H)-one] |  | > 30 µM |  |  |  | > 30 µM
Cc1cccc(NCc2cc3n(n2)[C@@H](C)CN(c2ccc(F)cc2)C3=O)c1 [Compound 51, (S)-5-(4-fluorophenyl)-7-methyl-2-((m-tolylamino)methyl)-6,7-dihydropyrazolo[1,5-a]pyrazin-4(5H)-one] | 2.53 | 7.61 µM | 3.01 µM | 3.21% | 86.2% | 
CS(=O)(=O)c1ccc(NCc2cc3n(n2)CCN(c2ccc(F)cc2)C3=O)cc1 [Compound 25, 5-(4-fluorophenyl)-2-(((4-(methylsulfonyl)phenyl)amino)methyl)-6,7-dihydropyrazolo[1,5-a]pyrazin-4(5H)-one] | >3 | > 30 µM |  | 66.9% |  | > 10 µM
